# Reference: patent US4732977A, “Carbapenem antibiotics” (priority 1986, dated 1988)
# Where two headings read alike, the source gives them in different places.
# Tests used:
# [1] = system: E. coli A-15119; assay: Protective effect in intramuscular treatment of infected mice; type: in vivo; details: Escherichia coli, mice, i.m., read-out: PD50/treatment
# Protocol: (§1) The PD50 (dose in mg/kg required to give protection to 50% of the infected mice) is indicated.
# with drugs 0 and 2 hours postinfection.
# (§2) The PD50 (dose in mg/kg) required to give protection to 50% of the infected mice is indicated.
# [2] = system: K. pneumoniae A9664; assay: as above; type: in vivo; details: Klebsiella pneumoniae
# Description: as §2
# [3] = system: H. influenzae A-9833; assay: M.I.C., tube dilution; type: cell-based; details: Haemophilus influenzae, A9833; overnight incubation at 37° C., Nutrient Broth
# [4] = system: H. influenzae A21518; assay: M.I.C., tube dilution; type: cell-based; details: Haemophilus influenzae, overnight incubation at 37° C., Nutrient Broth
# [5] = system: S. aureus A-9606; assay: Protective effect in intramuscular treatment of infected mice; type: in vivo; details: Staphylococcus aureus, mice, i.m., read-out: PD50/treatment
# Protocol: as §1
# with drugs 0 and 2 hours postinfection.
# as §2
# [6] = system: P. aeruginosa A21213; assay: M.I.C., tube dilution; type: cell-based; details: Pseudomonas aeruginosa, A21213, overnight incubation at 37° C., Nutrient Broth; read-out: MIC
# [7] = system: P. vulgaris A21559; assay: M.I.C., tube dilution; type: cell-based; details: Proteus vulgaris, A21559, overnight incubation at 37° C., Nutrient Broth; read-out: MIC
# [8] = system: P. aeruginosa A-9843a; assay: animal or person; type: in vivo, mice; details: Pseudomonas aeruginosa, A9843A, in Mus musculus, im, read-out: PD50/treatment
# Protocol: as §1
# with drugs 0 and 2 hours postinfection.
# as §2
# [9] = system: B. fragilis A22862; assay: M.I.C., tube dilution; type: cell-based; details: Bacteroides fragilis, overnight incubation at 37° C., Nutrient Broth
# [10] = system: P. mirabilis A-9900; assay: Protective effect in intramuscular treatment of infected mice; type: in vivo; details: Proteus mirabilis, mice, i.m., read-out: PD50/treatment
# Protocol: as §1
# with drugs 0 and 2 hours postinfection.
# as §2
# [11] = system: S. pyogenes A-9604; assay: M.I.C., tube dilution; type: cell-based; details: Streptococcus pyogenes, A9604; overnight incubation at 37° C., Nutrient Broth; read-out: MIC
# [12] = Blood levels in mice after intramuscular administration; details: mouse, blood, im, 20 mg/kg;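 also: compounds dissolved in 0.1 M phosphate buffer at pH 7, data from one experiment using four mice for each compound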
# Description: Compounds were solubilized in 0.1 M phosphate buffer pH 7.
# a single test; 4 mice used per compound.
# Compounds were solubilized in 0.1 M phosphate buffer, pH 7.
# on a single test; 4 mice per compound.
# [13] = system: S. aureus A-9537; assay: M.I.C., tube dilution; type: cell-based; details: Staphylococcus aureus, read-out: MIC
# [14] = system: P. aeruginosa A24081; assay: Protective effect in intramuscular treatment of infected mice; type: in vivo; details: Pseudomonas aeruginosa, read-out: PD50/treatment
# Description: as §2
# [15] = system: S. pneumoniae A-9585; assay: M.I.C., tube dilution; type: cell-based; details: Streptococcus pneumoniae, A9585; overnight incubation at 37° C., Nutrient Broth; read-out: MIC
# [16] = system: S. faecalis A20688; assay: M.I.C., tube dilution; type: cell-based; details: Enterococcus faecalis, A20688, overnight incubation at 37° C., Nutrient Broth; read-out: MIC
# [17] = system: E. coli A15119; assay: M.I.C., tube dilution; type: cell-based; details: Escherichia coli, A15119
# [18] = system: E. coli A20341-1; assay: M.I.C., tube dilution; type: cell-based; details: Escherichia coli
# [19] = system: E. cloacae A-9659; assay: M.I.C., tube dilution; type: cell-based; details: Enterobacter cloacae, A9659
# [20] = system: K. pneumoniae A20468; assay: M.I.C., tube dilution; type: cell-based; details: Klebsiella pneumoniae, A20468, overnight incubation at 37° C., Nutrient Broth
# [21] = system: P. rettgeri A22424; assay: M.I.C., tube dilution; type: cell-based; details: Providencia rettgeri, A22424
# [22] = system: S. marcescens A20019; assay: M.I.C., tube dilution; type: cell-based; details: Serratia marcescens, A20019; overnight incubation at 37° C., Nutrient Broth
# [23] = system: K. pneumoniae A-9664; assay: M.I.C., tube dilution; type: cell-based; details: Klebsiella pneumoniae, A9664, overnight incubation at 37° C., Nutrient Broth
# [24] = system: S. aureus A15097 (Meth-res.); assay: M.I.C., tube dilution; type: cell-based; details: Staphylococcus aureus, overnight incubation at 37° C.
# [25] = im, K. pneumoniae A9664, read-out: PD50/treatment
# [26] = overnight incubation at 37° C., Nutrient Broth, read-out: MIC
# [27] = A203411, overnight incubation at 37° C., Nutrient Broth, read-out: MIC
SMILES,MIC [6] [µg/mL],MIC [7] [µg/mL],ED50 [8] [mg/kg],MIC [11] [µg/mL],AUC [12] [ng·h/mL],Cmax [12] [ng/mL],half-life [12] [min],"MIC ([13]; A9537, +50% serum) [µg/mL]",MIC [15] [µg/mL],MIC [16] [µg/mL],"ED50 ([5]; im, S. aureus A9606) [mg/kg]",other results
"C[C@@H](O)[C@H]1C(=O)N2C(C(=O)[O-])=C(SCCc3cccc[n+]3C)C[C@H]12 [Example 5, 3-(N-Methylpyridine-2-yl-ethanethio)-6α-[1-(R)-hydroxyethyl]-7-oxo-1-azabicyclo(3.2.0)hept-2-ene-2-carboxylate]",2,0.016,1.6,–,–,–,–,–,–,–,–,"ED50 ([1]; A15119, im, E. coli, strain not given): 4 mg/kg; ED50 ([2]; A9664, im, i.m., K. pneumoniae, strain not given, read-out: PD50/treatment): 3 mg/kg; MIC [3]: 4 µg/mL; MIC [4]: 4 µg/mL; ED50 ([5]; A9606, im, S. aureus, strain not given): 0.2 mg/kg; MIC [9]: 0.03 µg/mL; ED50 ([10]; A9900, im, P. mirabilis, strain not given): 10 mg/kg"
"C[C@@H](O)[C@H]1C(=O)N2C(C(=O)[O-])=C(SCc3n(C)cc[n+]3C)C[C@H]12 [Example 9, 3-(N,N'-Dimethylimidazole-2-yl-methanethio)-6α-[1-(R)-hydroxyethyl]-7-oxo-1-azabicyclo(3.2.0)hept-2-ene-2-carboxylate]",–,0.008,0.19,0.001,8500,16700,12,0.008,0.001,–,–,"ED50 ([1]; im, E. coli A15119): 1.2 mg/kg; ED50 [2, 25]: 1.8 mg/kg; ED50 ([14]; A24081, im): 0.19 mg/kg; ED50 ([10]; im, P. mirabilis A9900): 7.1 mg/kg"
"Cc1scc(CSC2=C(C(=O)[O-])N3C(=O)[C@H]([C@@H](C)O)[C@H]3C2)[n+]1C [Example 8, 3-(2-Methyl-N-methyl-thiazole-4-yl-methanethio)-6-α-[1-(R)-hydroxyethyl]-7-oxo-1-azabicyclo(3.2.0)hept-2-ene-2-carboxylate]",–,0.03,0.19,–,10500,18800,11,–,–,0.5,0.21,"ED50 ([1]; im, E. coli A15119): 0.86 mg/kg; ED50 [2, 25]: 1.8 mg/kg; ED50 ([14]; im, mice, i.m., P. aeruginosa A24081): 0.33 mg/kg; ED50 ([10]; im, P. mirabilis A9900): 1.4 mg/kg"
C[C@@H](O)[C@H]1C(=O)N2C(C(=O)[O-])=C(SCCc3cc[n+](C)cc3)C[C@H]12 [Example 2],2,0.016,–,0.001,5300,13900,9,–,0.001,–,–,"MIC ([17]; table 2, no inoculum dilution printed, read-out: MIC): 0.016 µg/mL; MIC ([18]; A203411, table 2, no inoculum dilution printed, read-out: MIC): 0.016 µg/mL"
"C[C@@H](O)[C@H]1C(=O)N2C(C(=O)[O-])=C(SCc3cn(CC(=O)O)n[n+]3C)C[C@H]12 [Example 18, Potassium 3-[4-(1-carboxylatomethyl-3-methyl-1,2,3-triazolium)-methanethio]-6α-[1-(R)-hydroxyethyl]-7-oxo-1-azabicyclo[3.2.0]hept-2-ene-2-carboxylate]",63,–,–,2,3900,14900,6,> 63,1,63,–,"MIC [17, 26]: 16 µg/mL; MIC [19, 26]: 63 µg/mL; MIC [18, 27]: 16 µg/mL; MIC ([20]; read-out: MIC): 63 µg/mL"
"C[C@@H](O)[C@H]1C(=O)N2C(C(=O)[O-])=C(SCc3cn(C)n[n+]3C)C[C@H]12 [Example 15 ""A"", 3-[4-(N,N-dimethyl-1,2,3-triazolium)methylthio]-6α-[1-(R)-hydroxyethyl]-7-oxo-1-azabicyclo(3.2.0)hept-2-ene-2-carboxylate]",–,0.008,0.39,0.0005,9500,16700,12,–,0.0005,–,–,–
CC(SC1=C(C(=O)[O-])N2C(=O)[C@H]([C@@H](C)O)[C@H]2C1)c1cc[n+](C)cc1 (stereo partly shown) [Example 12],2,0.016,1.8,–,–,–,–,0.016,0.002,0.5,0.89,"MIC ([13]; A9537, overnight incubation at 37° C., Nutrient Broth): 0.008 µg/mL; MIC [21]: 0.13 µg/mL; MIC [19]: 0.06 µg/mL; MIC [18, 27]: 0.008 µg/mL; MIC [20]: 0.06 µg/mL"
"Cc1sc(CSC2=C(C(=O)[O-])N3C(=O)[C@H]([C@@H](C)O)[C@H]3C2)c(C)[n+]1C [Example 10, 3-(2,3,4-Trimethylthiazole-5-yl-methanethio)-6α-[1-(R)-hydroxyethyl]-7-oxo-1-azabicyclo(3.2.0)hept-2-ene-2-carboxylate]",2,0.016,–,0.001,9500,20100,11,–,0.001,–,–,MIC [22]: 0.06 µg/mL; MIC [23]: 0.06 µg/mL
"Cc1c(CSC2=C(C(=O)[O-])N3C(=O)[C@H]([C@@H](C)O)[C@H]3C2)ccc[n+]1C [Example 14, 3-(2-Methyl-N-methylpyridine-3-yl-methanethio)-6α[1-(R)-hydroxyethyl]-7-oxo-1-azabicyclo(3.2.0)hept-2-ene-2-carboxylate]",0.5,0.016,0.45,0.0005,7600,15800,13,–,0.0005,–,0.07,–
"CCC[n+]1ccc(CSC2=C(C(=O)[O-])N3C(=O)[C@H]([C@@H](C)O)[C@H]3C2)cc1 [Example 6, 3-(1-Propylpyridine-4-yl-methanethio)-6α-[1-(R)-hydroxyethyl]-7-oxo-1-azabicyclo(3.2.0)hept-2-ene-2-carboxylate]",1,0.06,0.4,–,8500,17700,9,0.06,–,0.5,–,"MIC ([17]; overnight incubation at 37° C., Nutrient Broth): 0.06 µg/mL; MIC [24]: 4 µg/mL; MIC ([18]; A203411, overnight incubation at 37° C., Nutrient Broth): 0.06 µg/mL; MIC [9]: 0.03 µg/mL"
